The values below are quoted from earlier work in US20110223244A1, “ALCOHOL RESISTANT ENTERIC PHARMACEUTICAL COMPOSITIONS” (priority 2010, published 2011).

The conditions of the series: yields 1-(2-thienyl)carbinol, naphthol and substituted naphthols.

Structures can show the parent of a compound that is named as a salt.

With `CNCC[C@H](Oc1cccc2ccccc12)c1cccs1` [duloxetine HCl], the “stability in aqueous HCl” value was “rapidly undergoes solvolysis and rearrangement”.
